From ChEMBL document CHEMBL3351907, “Design, synthesis and biological evaluation of benzyl 2-(1H-imidazole-1-yl) pyrimidine analogues as selective and potent Raf inhibitors” (Bioorg Med Chem Lett, 2014)
Activity calls are given as the source filed them. No cut-off for these calls is given here.

Key:
Format in all cases: functional
[1] = (§1) Cytotoxicity against human U937 cells assessed as cell viability after 24 hrs by MTT assay; settings: U-937, 24 h
[2] = (§2) Cytotoxicity against human A375P cells assessed as cell viability after 24 hrs by MTT assay
A375P = experiment: as §2
U-937 = experiment: as §1

C[C@H](O)CNc1nccc(-n2ccnc2Cc2cccc(NC(=O)Cc3c[nH]c4ccccc34)c2)n1
GI50 [1]: > 30 µM
GI50 [2]: > 30 µM

C[C@H](O)CNc1nccc(-n2ccnc2Cc2cccc(NC(=O)c3cc(N4CCOCC4)cc(C(F)(F)F)c3)c2)n1
GI50 [1]: 9.7 µM
GI50 [2]: 6.6 µM

C[C@H](O)CNc1nccc(-n2ccnc2C(=O)c2cccc(NC(=O)Nc3ccc(Cl)c(Cl)c3)c2)n1
GI50 [1]: 14.7 µM
GI50 [2]: > 30 µM

C[C@H](O)CNc1nccc(-n2ccnc2Cc2cccc(NC(=O)c3ccc(-c4ccccc4)cc3)c2)n1
GI50 [1]: 1.68 µM
GI50 [2]: 0.6 µM

COc1ccc(-c2ccc(C(=O)Nc3cccc(C(=O)c4nccn4-c4ccnc(NC[C@H](C)O)n4)c3)o2)cc1
GI50 [1]: 2.55 µM
GI50 [2]: 9.39 µM

C[C@H](O)CNc1nccc(-n2ccnc2Cc2cccc(NC(=O)c3ccccc3F)c2)n1
GI50 [1]: > 30 µM
GI50 [2]: 7.45 µM

C[C@H](O)CNc1nccc(-n2ccnc2Cc2cccc(NC(=O)Nc3cccc(Cl)c3)c2)n1
GI50 [1]: 15.3 µM
GI50 [2]: 26.2 µM

C[C@H](O)CNc1nccc(-n2ccnc2C(=O)c2ccc(NC(=O)Nc3ccc(Cl)c(C(F)(F)F)c3)cc2)n1
GI50 [1]: 7.45 µM
GI50 [2]: > 30 µM

C[C@H](O)CNc1nccc(-n2ccnc2C(=O)c2ccc(NC(=O)Nc3ccc(Cl)c(Cl)c3)cc2)n1
GI50 [1]: 11.6 µM
GI50 [2]: > 30 µM

C[C@H](O)CNc1nccc(-n2ccnc2C(=O)c2ccc(NC(=O)c3ccc(Cl)cc3)cc2)n1
GI50 [1]: > 30 µM
GI50 [2]: > 30 µM

Cc1cc(C)cc(C(=O)Nc2cccc(Cc3nccn3-c3ccnc(NC[C@H](C)O)n3)c2)c1
GI50 [1]: 16.8 µM
GI50 (A375P): inactive

C[C@H](O)CNc1nccc(-n2ccnc2Cc2cccc(NC(=O)Cc3ccc(-c4ccccc4)cc3)c2)n1
GI50 [1]: 10 µM
GI50 [2]: 11.2 µM

C[C@H](O)CNc1nccc(-n2ccnc2C(=O)c2ccc(NC(=O)c3cc(N4CCN(C)CC4)cc(C(F)(F)F)c3)cc2)n1
GI50 (U-937): inactive
GI50 [2]: 5.92 µM

C[C@H](O)CNc1nccc(-n2ccnc2C(=O)c2cccc(NC(=O)c3ccc(Cl)cc3)c2)n1
GI50 [1]: > 30 µM
GI50 [2]: > 30 µM

C[C@H](O)CNc1nccc(-n2ccnc2C(=O)c2cccc(NC(=O)c3cccc(Cl)c3)c2)n1
GI50 [1]: > 30 µM
GI50 [2]: > 30 µM

C[C@H](O)CNc1nccc(-n2ccnc2Cc2cccc(NC(=O)c3ccccc3-c3ccccc3)c2)n1
GI50 (U-937): inactive
GI50 (A375P): inactive

C[C@H](O)CNc1nccc(-n2ccnc2C(=O)c2ccc(NC(=O)c3ccc(C(F)(F)F)c(N4CCOCC4)c3)cc2)n1
GI50 (U-937): inactive
GI50 [2]: 7.07 µM

C[C@H](O)CNc1nccc(-n2ccnc2Cc2cccc(NC(=O)c3ccc(N4CCOCC4)c(C(F)(F)F)c3)c2)n1
GI50 (U-937): inactive
GI50 (A375P): inactive

C[C@H](O)CNc1nccc(-n2ccnc2Cc2cccc(NC(=O)c3ccncc3)c2)n1
GI50 (U-937): inactive
GI50 [2]: 8.92 µM

C[C@H](O)CNc1nccc(-n2ccnc2Cc2cccc(NC(=O)Nc3ccc(Cl)c(Cl)c3)c2)n1
GI50 [1]: 1.73 µM
GI50 [2]: 19.2 µM
